Laboratory results published in ChEMBL document CHEMBL1148259, “2,4-Bis(octadecanoylamino)benzenesulfonic acid sodium salt as a novel scavenger receptor inhibitor with low molecular weight” (Bioorg Med Chem Lett, 2004).

target: T1, Macrophage scavenger receptor types I and II (Mus musculus) (UniProt P30204); experiment: Activity against acetyl-LDLbinding to scavenger receptor as percent inhibition of incorporation of DiI-acetyl-LDL into mouse peritoneal macrophages at 10 uM
T1 sequence (whole entry): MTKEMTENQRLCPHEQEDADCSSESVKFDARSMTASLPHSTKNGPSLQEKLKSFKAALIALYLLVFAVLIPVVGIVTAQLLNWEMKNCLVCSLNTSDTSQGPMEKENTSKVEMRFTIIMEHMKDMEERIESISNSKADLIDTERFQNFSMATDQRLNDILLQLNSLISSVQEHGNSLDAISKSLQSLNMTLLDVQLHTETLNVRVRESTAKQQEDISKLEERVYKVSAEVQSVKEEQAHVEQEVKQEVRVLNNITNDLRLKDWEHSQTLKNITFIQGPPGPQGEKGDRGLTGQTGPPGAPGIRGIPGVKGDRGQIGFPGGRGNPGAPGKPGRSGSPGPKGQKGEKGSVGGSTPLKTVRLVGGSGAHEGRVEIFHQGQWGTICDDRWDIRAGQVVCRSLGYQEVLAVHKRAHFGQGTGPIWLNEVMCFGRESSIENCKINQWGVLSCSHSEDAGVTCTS

inhibition [%] | SMILES
18.5 | CCCCCCCCCCCCCCCCCC(=O)Nc1cc(NC(=O)CCCCCCCCCCCCCCCCC)cc(S(=O)(=O)O)c1
20.5 | CCCCCCCCCCCCCCCCCC(=O)NC(COS(=O)(=O)O)C(=O)NCCCCCCCCCCCCCC (stereo not drawn)
57 | CCCCCCCCCCCCCCCCCC(=O)Nc1ccc(S(=O)(=O)O)c(NC(=O)CCCCCCCCCCCCCCCCC)c1

target: T1, Macrophage scavenger receptor types I and II (Mus musculus); experiment: Inhibitory activity against [125I]-acetyl-LDL binding to mouse peritoneal macrophage scavenger receptor at 100 uM

inhibition [%] | SMILES
81.1 | CCCCCCCCCCCCCCCCCC(=O)NC(COS(=O)(=O)O)C(=O)NCCCCCCCCCCCCCC (stereo not drawn)

target: T1, Macrophage scavenger receptor types I and II (Mus musculus); experiment: Inhibitory activity against [125I]acetyl-LDL binding to mouse peritoneal macrophage scavenger receptor at 10 uM

inhibition [%] | SMILES
6.6 | CCCCCCCCCCCCCCCCCC(=O)NC(COS(=O)(=O)O)C(=O)NCCCCCCCCCCCCCC (stereo not drawn)

target: T1, Macrophage scavenger receptor types I and II (Mus musculus); experiment: Percent inhibition of DiI-acetyl-LDL binding to scavenger receptor of mouse peritoneal macrophages at 100 uM; format: functional

inhibition [%] | SMILES
32.1 | CCCCCCCCCCCCCCCCCC(=O)Nc1ccc(NC(=O)CCCCCCCCCCCCCCCCC)c(S(=O)(=O)O)c1
66.6 | CCCCCCCCCCCCCC(=O)Nc1ccc(S(=O)(=O)O)c(NC(=O)CCCCCCCCCCCCC)c1
< 10 | CCCCCCCCCCCCCCCCCC(=O)Nc1ccc(S(=O)(=O)O)cc1
84.6 | CCCCCCCCCCCCCCCCCC(=O)Nc1ccc(S(=O)(=O)O)c(NC(=O)CCCCCCCCCCCCCCCCC)c1
< 10 | CCCCCCCCCC(=O)Nc1ccc(S(=O)(=O)O)c(NC(=O)CCCCCCCCC)c1

The remaining lines, values behind:

SMILES | inhibition [%]
CCCCCCCCCCCCCCCCCC(=O)Nc1cc(NC(=O)CCCCCCCCCCCCCCCCC)cc(S(=O)(=O)O)c1 | 71.2
CCCCCCCCCCCCCCCCCC(=O)NC(COS(=O)(=O)O)C(=O)NCCCCCCCCCCCCCC (stereo not drawn) | 61.4
CCCCCCCCCCCCCCCCCC(=O)Nc1ccc(C(=O)O)c(NC(=O)CCCCCCCCCCCCCCCCC)c1 | < 10
CCCCCCCCCCCCCCCCCCCCCC(=O)Nc1ccc(S(=O)(=O)O)c(NC(=O)CCCCCCCCCCCCCCCCCCCCC)c1 | 85.7
CCCCCCCCCCCCCCCCCC(=O)Nc1ccc(COS(=O)(=O)O)cc1NC(=O)CCCCCCCCCCCCCCCC | < 10
CCCCCCCCCCCCCCCCCC(=O)N1C[C@H](OS(=O)(=O)O)C[C@H]1C(=O)NCCCCCCCCCCCCCC | 23.7

target: T1, Macrophage scavenger receptor types I and II (Mus musculus); experiment: Inhibitory activity against [125I]acetyl-LDL binding to mouse peritoneal macrophage scavenger receptor at 30 uM

inhibition [%] | SMILES
41.8 | CCCCCCCCCCCCCCCCCC(=O)NC(COS(=O)(=O)O)C(=O)NCCCCCCCCCCCCCC (stereo not drawn)

target: T1, Macrophage scavenger receptor types I and II (Mus musculus); experiment: Activity against acetyl-LDLbinding to scavenger receptor as percent inhibition of incorporation of DiI-acetyl-LDL into mouse peritoneal macrophages at 30 uM

inhibition [%] | SMILES
48 | CCCCCCCCCCCCCC(=O)Nc1ccc(S(=O)(=O)O)c(NC(=O)CCCCCCCCCCCCC)c1
72.5 | CCCCCCCCCCCCCCCCCC(=O)Nc1ccc(S(=O)(=O)O)c(NC(=O)CCCCCCCCCCCCCCCCC)c1

Second part, the molecule before the results:

SMILES | inhibition [%]
CCCCCCCCCCCCCCCCCC(=O)Nc1cc(NC(=O)CCCCCCCCCCCCCCCCC)cc(S(=O)(=O)O)c1 | 46.2
CCCCCCCCCCCCCCCCCC(=O)NC(COS(=O)(=O)O)C(=O)NCCCCCCCCCCCCCC (stereo not drawn) | 43.8
CCCCCCCCCCCCCCCCCCCCCC(=O)Nc1ccc(S(=O)(=O)O)c(NC(=O)CCCCCCCCCCCCCCCCCCCCC)c1 | 48

target: T2, Macrophage scavenger receptor types I and II (Mus musculus, UniProt P30204); experiment: Inhibitory activity against [125I]acetyl-LDL binding to mouse peritoneal macrophage scavenger receptor
T2 sequence (P30204 whole entry): T1 sequence (whole entry)

IC50 [nM] | SMILES
2000 | CCCCCCCCCCCCCCCCCC(=O)Nc1ccc(S(=O)(=O)O)c(NC(=O)CCCCCCCCCCCCCCCCC)c1
